Legend:
[1] = test system: Human CD3+ T cells
Description: 10^5 freshly isolated CD3′ T cells were activated using CD3/CD28 dynabeads (Dynal, USA) at a T cell:bead ratio of 1:1 in 200 ul of medium in 96 wells plate. Channel blockers diluted at different concentrations in PBS were added to the cells 1 h prior to stimulation (done in triplicate).
Human CD3′ T cells were stimulated with CD3/CD28 beads following incubation with different concentrations (from 0.1 to 100 nM) of MK and KTX. The activity of MK was compared to the activity of KTX that was previously described to block the channels (Beeton et al, JI 2001).

[2] = test system: guinea pig ileum; assay: Intraluminal pressure measurement of peristaltic activity of guinea pig ileum; settings: MgTX 10 nM; mokatoxin-1 1-100 nM
[3] = test system: guinea pig ileum; assay: Spontaneous motility (twitches) of guinea pig ileum strips; settings: reference toxins 10 nM; mokatoxin-1 1-100 nM
[4] = test system: guinea pig ileum; settings: J Pharmacol Exp Ther. 1999; cited from earlier work
[5] = biological target: T1, Kv1.3 (Homo sapiens, UniProt P22001); assay: Phage panning on live cells (HEK, COS) expressing Kv1.3 channels; assay type: binding; set-up: expressed in transfected cells; host or cells: HEK (HEK293) and COS cells
Excerpt: In another example, receptors may be expressed in cells. For example, cells may be stably or transiently transfected with one or more receptors can be utilized as expressed in native tissues (Clackson and Lowman, Phage display. Oxford University Press, 2004; Barbas et al., Phage display. A laboratory manual. Cold Spring Harbor Laboratory Press, 2001; Sambrook et al., Molecular Cloning: A Laboratory Manual. Vols 1-3. Cold Spring Harbor Laboratory Press, 1989). In one example, HEK (mammalian human embryonic kidney) and COS cells expressing wild-type Kv1.3 or Kv1.3-PDZ domain chimera were employed, the latter target allowing a “double” panning (e.g., as a control or to enhance binding affinity) using phages expressing kaliotoxin-1 and/or PDZ-binder domain.
Panning may be performed by the binding of ligands to the receptors, followed by washes and ligand recovery. In one example, panning is performed according to standard methods of phage display (Clackson and Lowman, Phage display. Oxford University Press, 2004; Barbas et al., Phage display. A laboratory manual. Cold Spring Harbor Laboratory Press, 2001). Panning may be repeated until the desired enrichment is achieved. In addition, libraries can be pre-depleted on surfaces or cells that contain no receptors or on a receptor where the putative ligand receptor domain may be directly or indirectly altered. Additionally, any and all conditions of panning may be varied, altered or changed to achieve optimal results, such as the isolation of a specific ligand. Panning variations include, but are not limited to, the presence of competing ligand(s), presence of excess target(s), length and temperature of binding, pre-absorption of the ligand library on one or more different receptor(s) or cells or surfaces, composition of binding solution (e.g., ionic strength), stringency of washing, and recovery procedures. Phages recovered from panning may be processed for further rounds of panning, functional analysis, and/or sequencing/genotyping to deduce the resulting ligands' amino acid sequence or biological properties (Clackson and Lowman, Phage display. Oxford University Press, 2004; Barbas et al., Phage display. A laboratory manual. Cold Spring Harbor Laboratory Press, 2001).
5×10^11 phagemids were added to the cell cultures in “B.”
A library of KTX-like ligands, with a calculated diversity of greater than 11,000, was created de novo. The library comprised approximately 8% KTX-like ligands and 92% non-KTX-like ligands. The library of ligands was screened on Kv1.3 receptors expressed in HEK and COS cells.
Transfection efficiency was monitored with cotransfection of gene encoding for the green fluorescence protein (GFP) and observing the fluorescence after 1-2 days following transfection.
KTX and mokatoxin-1 are Kv1.3 specific scorpion toxins. […] Following incubation of the cells with the phages, cells were subjected to wash to remove the unbound/weakly bound phages. The remaining bound phages were eluted from the cells and transformed into XL1 E. coli, and plated onto LB plates with antibiotic selecting for the phagemids.

[6] = biological target: T1, Kv1.3; assay: Whole-cell patch-clamp of Kv1.3 currents in HEK293 cells, toxin-phage applied; assay type: cell-based; set-up: expressed in transfected cells; host or cells: HEK (HEK293) and COS cells; settings: 0.1 nM toxin-displaying phage
Description: […] […] Plasmids were transfected into cells with Lipofectamine 2000 (Invitrogen) according to the manufacturer's instructions. Experiments were performed at 24 hr. Whole-cell patch-clamp was performed using an Axopatch 200B amplifier and pCLAMP software (Molecular Devices, Union City, Calif.) at filter and sampling frequencies of 5 and 25 kHz respectively. Kv1.3 currents were evoked by 250 ms test pulses to 50 mV from −80 mV with a 5 second interpulse interval and studied in a bath solution comprising in mM: 1.3 CaCl2, 0.5 MgCl2, 0.4 MgSO4, 3.56 KCl, 0.44 KH2PO4, 139.7 NaCl, 0.34 Na2HPO4, 5.5 glucose, 10 HEPES adjusted to pH 7.4 with NaOH. […] Electrodes were coated with Sigmacote (Sigma) prior to use.
Electrophysiological recordings were performed with mokatoxin—0422 to confirm blocking of Kv1.3 channels. […] Plasmids were transfected into cells with Lipofectamine 2000 (Invitrogen) according to the manufacturer's instructions. Experiments were performed at 24 hrs. Whole-cell patch-clamp was performed using an Axopatch 200B amplifier and pCLAMP software (Molecular Devices, Union City, Calif.) at filter and sampling frequencies of 5 and 25 kHz respectively. […]

[7] = test system: vector transfected cells; assay: Phage panning on vector transfected cells (CONTROL); assay type: binding, human; settings: one round of panning; calculated input 5:95%
Description: Following incubation of the cells with the phages, cells were subjected to wash to remove the unbound/weakly bound phages. The remaining bound phages were eluted from the cells and transformed into XL1 E. coli, and plated onto LB plates with antibiotic selecting for the phagemids. The following day, 19-20 colonies of transformed XL1 were randomly selected and genotyped to establish the relative ratio (i.e., its departure from the calculated initial input of 5:95%) of the two different phage species, before and after the panning.

[8] = one round of panning, calculated input 5:95%

T1 sequence (P22001 whole entry, the tested form may be a part): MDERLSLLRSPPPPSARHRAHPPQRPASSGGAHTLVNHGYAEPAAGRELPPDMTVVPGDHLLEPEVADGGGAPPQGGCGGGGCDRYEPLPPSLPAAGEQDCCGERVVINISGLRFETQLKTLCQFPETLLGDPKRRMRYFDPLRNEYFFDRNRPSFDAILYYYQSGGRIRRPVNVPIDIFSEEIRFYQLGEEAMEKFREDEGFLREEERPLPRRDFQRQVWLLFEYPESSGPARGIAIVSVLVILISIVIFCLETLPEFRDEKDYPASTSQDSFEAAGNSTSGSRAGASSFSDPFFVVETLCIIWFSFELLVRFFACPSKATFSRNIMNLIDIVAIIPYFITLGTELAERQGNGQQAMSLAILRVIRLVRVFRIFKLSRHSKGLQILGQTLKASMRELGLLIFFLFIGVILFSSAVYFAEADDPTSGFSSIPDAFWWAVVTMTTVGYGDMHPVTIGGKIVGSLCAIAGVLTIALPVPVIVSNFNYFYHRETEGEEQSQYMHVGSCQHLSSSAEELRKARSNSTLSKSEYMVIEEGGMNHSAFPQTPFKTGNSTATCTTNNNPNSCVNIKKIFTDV

## CC[C@H](C)[C@H](N)C(=O)N[C@@H](CC(N)=O)C(=O)N[C@H](C(=O)N[C@@H](CCCCN)C(=O)N[C@H]1CSSC[C@@H]2NC(=O)[C@H](CCCCN)NC(=O)CNC(=O)[C@H](Cc3ccccc3)NC(=O)[C@H](CCCNC(=N)N)NC(=O)[C@H](CCSC)NC(=O)CNC(=O)[C@H](C)NC(=O)[C@H](CC(=O)O)NC(=O)[C@H](CCCCN)NC(=O)[C@@H]3CSSC[C@@H](C(=O)N[C@@H](Cc4ccc(O)cc4)C(=O)N[C@@H](CO)C(=O)O)NC(=O)[C@H](CCCNC(=N)N)NC(=O)[C@H](CSSC[C@H](NC(=O)[C@H](CCC(N)=O)NC(=O)[C@H](CCC(N)=O)NC(=O)[C@@H]4CCCN4C(=O)[C@H](CC(C)C)NC(=O)[C@H](CO)NC1=O)C(=O)N[C@@H]([C@@H](C)CC)C(=O)N[C@@H](CCCCN)C(=O)N1CCC[C@H]1C(=O)N3)NC(=O)[C@H](CCCCN)NC(=O)[C@H](CCCCN)NC(=O)[C@H](CC(N)=O)NC(=O)[C@H](CCSC)NC2=O)C(C)C [MK-1, mokatoxin-1]
[1]
  cell viability: no reduction of cell viability

## Margatoxin
[2]
  pressure threshold for initiation and frequency of peristaltic waves: induced a lowering of the pressure threshold
[3]
  induction of twitches in ileum strips: induced twitches
[4]
  ileum contractions: contractions

## mokatoxin-2
[5]; HEK, KTX scaffold combinatorial library, n=18
  share after the 2nd round of panning of the library on Kv1.3 cells: 11%
[5]; [8]
  # of genotype (%), Test: 90%
  # of genotype, Test: 18
[6]
  block of Kv1.3 channels expressed in mammalian cells: blocks Kv1.3 channels
[7]
  # of genotype (%), Control: 5%
  # of genotype, Control: 1
